# Laboratory results taken from US20230365625A1, “METHODS FOR TREATING AND/OR PREVENTING UNDESIRABLE SEQULAE OF NASAL TURBINOPLASTY OR FUNCTIONAL ENDOSCOPIC SINUS SURGERY” (3-D Matrix, Ltd., priority 2022, published 2023).
# Several values for one entry are separate records, joined by “and”; a condition that tells them apart may be missing. Equal values may be shown once. Entries after “also recorded” stand apart in the source; their conditions may differ.
# How the values were obtained:
# [1] = RADA16 2.5%, IEIK13 1.3%, QLEL12 0.15% in water; result in words; cited from earlier work
# [2] = tested on: nasal mucosal injuries on the middle turbinate and opposing nasal septum; experiment: Intra-operative time to hemostasis, sheep endoscopic nasal surgery model; format: in vivo, Merino sheep
# Procedure: Surgical Methods—On the day prior to surgery, the animals were weighed, and each nostril was randomly assigned by computer randomization to receive PuraSinus, FLOSEAL or no treatment to each nostril after the surgical turbinoplasty. Each animal had food withheld for 24 hours and water withheld for 8 to 12 hours prior to the day of surgery as per the standard anesthetic procedure. The animals were sedated with a weight adjusted dose of intravenous diazepam. Following sedation, a percutaneous jugular catheter was inserted and secured, with induction achieved by further weight adjusted doses of intravenous diazepam and ketamine. The animals were placed in sternal recumbency for insertion of a size-appropriate endotracheal tube. Anesthesia was maintained through inhaled 1-2% isofluorane with parenteral propofol and ketamine given when necessary. Each animal was then given a prophylactic dose of long-acting antibiotic, weight adjusted oxytetracycline to cover for postoperative infections. The nasal cavity was prepared by packing with surgical pledgets soaked in 1% lignocaine and phenylephrine mixture. The middle turbinate was infiltrated with the same lignocaine/phenylephrine mixture via a small gauge needle in numerous sites over the middle turbinate. The use of vasoconstrictors and decongestants such as lignocaine and phenylephrine both topically and injected locally is standard pre-operatively in patients undergoing turbinoplasty (Ahmed S. et al., J. Coll. Physicians Surg. Pak. 26(6): 531-2 (2016)) The animals' vital signs were monitored throughout the procedure.
# Prior to making incisions, all sheep were first examined under endoscope to screen for any nasal septum deviations. Only animals that had straight septum and uniform space between septum and middle turbinate were used. […]
# Intraoperative observations—The degree of bleeding/hemostasis was assessed by an independent observer who was blinded to the appearance of FLOSEAL and PuraSinus (SEQ ID NO:1), and to the background of these two hemostatic agents. […]
# [3] = tested on: nasal mucosal injuries on the middle turbinate and opposing nasal septum; experiment: Endoscopic grading of synechiae/adhesion formation at day 14 and day 42, sheep model; format: in vivo, Merino sheep; design: key to Adhesion score day 14 / Adhesion score day 42: 0: No intranasal adhesions/synechiae; 1: Intranasal adhesion extends less than 25% to septum; Intranasal adhesion extends 25-50% to septum; 3: Intranasal adhesion extends more than 50% to septum; 4: Completely formed adhesion/synechiae extending to septum; conditions: for Number of sites, synechiae Grade 0 / Number of sites, synechiae Grade 1 / Number of sites, synechiae Grade 2 / Number of sites, synechiae Grade 3 / Number of sites, synechiae Grade 4: 20 sites per group
# Procedure: Post-operative observations—Post recovery from anesthesia, the animals were returned to their pens with ongoing daily monitoring for 14 days, including bloody nasal discharge, temperature, and food and water intake. On each postoperative day, the animals were examined externally by an independent observer, with no involvement in the operation, for the presence of bloody nasal discharges. External blood was cleaned off after each examination followed with irrigation of each nostril using 20 ml of saline solution. Regular irrigation of the nose and sinuses is standard in post-operative care following nasal surgery. The sheep were sedated and examined via endoscope again on day 14 for the presence of adhesions and graded by an independent observer using the grading scheme below for sheep nasal adhesions. Representative endoscopic images for sites (two sites/sides per sheep) treated with PuraSinus (SEQ ID NO:1) are shown in FIG. 1 and untreated control sites are shown in FIG. 2, respectively. The sheep were euthanized at day 42, with a necropsy performed by the same independent observer grading intranasal adhesion formation and extension. […] [table]
# [4] = tested on: gastrointestinal endoscopic procedures and cardiovascular surgery; conditions: 2.5% w/v in water, topical hemostat; cited from earlier work
smiles,measurement,setting,value
"CC(=O)N[C@@H](CCCNC(=N)N)C(=O)N[C@@H](C)C(=O)N[C@@H](CC(=O)O)C(=O)N[C@@H](C)C(=O)N[C@@H](CCCNC(=N)N)C(=O)N[C@@H](C)C(=O)N[C@@H](CC(=O)O)C(=O)N[C@@H](C)C(=O)N[C@@H](CCCNC(=N)N)C(=O)N[C@@H](C)C(=O)N[C@@H](CC(=O)O)C(=O)N[C@@H](C)C(=O)N[C@@H](CCCNC(=N)N)C(=O)N[C@@H](C)C(=O)N[C@@H](CC(=O)O)C(=O)N[C@@H](C)C(N)=O [PuraSinus, Ac-RADARADARADARADA-NH2]",Effect of gamma-irradiation sterilization,[1],enhanced the rheological properties
same,Time to hemostasis,"[2]; individual surgical site (sheep number, nostril), listed as P",120 sec and 102 sec and 125 sec and 130 sec (3×) and 140 sec and 150 sec (2×) and 70 sec and 220 sec and 85 sec and 180 sec and 190 sec and 210 sec and 95 sec and 290 sec and 58 sec and 131 sec and 87 sec
same,Intra-operative hemostasis time,"[2]; sheep, mean±SD, 20 sites per group",139.7 ± 56.2 s
same,Hemostasis compared to untreated control,"[2]; sheep, result in words",statistically significant reduction in time to hemostasis; also recorded: improved hemostasis
same,Reduction of two-week synechiae score versus Controls,[3]; 2 weeks,91%
same,Reduction of two-week synechiae score versus Gelatin-thrombin treatment,[3]; 2 weeks,92%
same,Reduction of six-week synechiae score,[3]; 6 weeks,100%
same,Sites in which synechiae occurred,[3]; at 2 weeks,20%
same,Sites in which synechiae occurred,[3]; at 6 weeks,0%
same,Adhesion score day 42,"[3]; individual site, grade 0-4",0
same,Adhesion score day 14,"[3]; individual site, grade 0-4, listed as P",0 (16×) and 1 (Intranasal adhesion extends less than 25% to septum) (3×) and 2 (Intranasal adhesion extends 25-50% to septum)
same,Two-week synechiae score,"[3]; maximum 4 points, mean±SD",0.3±0.6 points
same,Synechiae formation compared to FLOSEAL and untreated control,"[3]; sheep, result in words",lowest observed synechiae formation; also recorded: more effective in inhibiting the formation of synechiae; also recorded: statistically significant lower incidence of adhesions; also recorded: significantly reduced synechiae formation
same,"Number of sites, synechiae Grade 0",[3]; six weeks post-surgery,20
same,"Number of sites, synechiae Grade 1",[3]; six weeks post-surgery,0
same,"Number of sites, synechiae Grade 2",[3]; six weeks post-surgery,0
same,"Number of sites, synechiae Grade 3",[3]; six weeks post-surgery,0
same,"Number of sites, synechiae Grade 4",[3]; six weeks post-surgery,0
same,"Number of sites, synechiae Grade 0",[3]; two weeks post-surgery,16
same,"Number of sites, synechiae Grade 1",[3]; two weeks post-surgery,3
same,"Number of sites, synechiae Grade 2",[3]; two weeks post-surgery,1
same,"Number of sites, synechiae Grade 3",[3]; two weeks post-surgery,0
same,"Number of sites, synechiae Grade 4",[3]; two weeks post-surgery,0
same,Successful hemostasis rates,[4],72.6-100%
